Test results taken from patent US20170369470A1, “Cyclic Compounds and Uses Thereof” (Karyopharm Therapeutics Inc., priority 2014, published 2017).

Assays:
Assay type in all cases: cell-based
[1] = test system: MS751 cells; assay: MTT cell proliferation assay, MS751 cells; details: MS751 cells (human cervix squamous cell carcinoma metastasis); incubation approximately 64-72 hours; read-out: MTT Assay IC50 MS 751
Description: (§1) The MTT cell proliferation assay was used to study the cytotoxic properties of the compounds. The assay was performed according to the method described by Roche Molecular Biochemicals, with minor modifications. The assay is based on the cleavage of the tetrazolium salt, MTT, in the presence of an electron-coupling reagent. The water-insoluble formazan salt produced must be solubilized in an additional step. Cells grown in a 96-well tissue culture plate were incubated with the MTT solution for approximately 4 hours. After this incubation period, a water-insoluble formazan dye formed. After solubilization, the formazan dye was quantitated using a scanning multi-well spectrophotometer (ELISA reader). […] The cells were seeded at 5,000-10,000 cells in each well of 96-well plate in 100 μL of fresh culture medium and were allowed to attach overnight. The stock solutions of the compounds were diluted in 100 μL cell culture medium to obtain eight concentrations of each test compound, ranging from 1 nM to 30 μM. […] All optical densities were measured at 490 nm using a Vmax Kinetic Microplate Reader (Molecular Devices). In most cases, the assay was performed in duplicate and the results were presented as a mean percent inhibition to the negative control±SE. The following formula was used to calculate the percent of inhibition: Inhibition (%)=(1−(ODo/OD))×100.
(§2) The compounds were tested against MS751, Z138 and 3T3 cells. The MS751 cell line is derived from a metastasis to lymph node of human cervix from a patient diagnosed with squameous cell carcinoma of the cervix. The Z138 cell line is a mature B-cell acute lymphoblastic leukemia cell line derived from a patient with chronic lumphocytic leukemia. 3T3 cells are standard fibroblast cells; they were originally isolated from Swiss mouse embryo tissue.

[2] = test system: Z138 cells; assay: MTT cell proliferation assay, Z138 cells; details: Homo sapiens, Z-138; Z138 cells (mantle cell lymphoma line); incubation approximately 64-72 hours
Description: as §1, §2

[3] = test system: 3T3 cells; assay: MTT cell proliferation assay, 3T3 cells; details: NIH3T3; 3T3 fibroblast cells (Swiss mouse embryo); incubation approximately 64-72 hours
Description: as §1, §2

Row | SMILES | IC50 [1] | IC50 [2] | IC50 [3]
1 | Nc1ccc(/C=C/C(=O)NCc2cc3cc(-c4ccc(C(=O)N5CCC(F)(F)C5)cc4)cc(C(F)(F)F)c3s2)cn1 [compound 520, (E)-3-(6-aminopyridin-3-yl)-N-((5-(4-(3,3-difluoropyrrolidine-1-carbonyl)phenyl)-7-(trifluoromethyl)benzo[b]thiophen-2-yl)methyl)acrylamide] | 5 to 10 µM | 1000 to 5000 nM | > 10 µM
2 | Nc1ccc(/C=C/C(=O)NCc2cc3cc(-c4ccc(C(=O)N5CCC(O)(C(F)(F)F)CC5)cc4)cc(C(F)(F)F)c3s2)cn1 [compound 521, (E)-3-(6-aminopyridin-3-yl)-N-((5-(4-(4-hydroxy-4-(trifluoromethyl)piperidine-1-carbonyl)phenyl)-7-(trifluoromethyl)benzo[b]thiophen-2-yl)methyl)acrylamide] | 1 to 5 µM | 1000 to 5000 nM | > 10 µM
3 | CC1(F)CCN(C(=O)c2ccc(-c3cc(C(F)(F)F)c4sc(CNC(=O)/C=C/c5ccc(N)nc5)cc4c3)cc2)C1 (stereo not drawn) [compound 522, (E)-3-(6-aminopyridin-3-yl)-N-((5-(4-(3-fluoro-3-methylpyrrolidine-1-carbonyl)phenyl)-7-(trifluoromethyl)benzo[b]thiophen-2-yl)methyl)acrylamide] | 5 to 10 µM | 1000 to 5000 nM | > 10 µM
4 | CC1(C)COCCN1C(=O)c1ccc(-c2cc(C(F)(F)F)c3sc(CNC(=O)/C=C/c4ccc(N)nc4)cc3c2)cc1 [compound 523, (E)-3-(6-aminopyridin-3-yl)-N-((5-(4-(3,3-dimethylmorpholine-4-carbonyl)phenyl)-7-(trifluoromethyl)benzo[b]thiophen-2-yl)methyl)acrylamide] | 1 to 5 µM | 1000 to 5000 nM | > 10 µM
5 | Nc1ccc(/C=C/C(=O)NCc2cc3cc(-c4ccc(C(=O)N5CC(F)(F)C5)cc4)cc(C(F)(F)F)c3s2)cn1 [compound 524, (E)-3-(6-aminopyridin-3-yl)-N-((5-(4-(3,3-difluoroazetidine-1-carbonyl)phenyl)-7-(trifluoromethyl)benzo[b]thiophen-2-yl)methyl)acrylamide] | > 10 µM | > 10000 nM | > 10 µM
6 | Nc1ccc(/C=C/C(=O)NCc2cc3cc(-c4ccc(C(=O)N5CC[C@H](F)C5)cc4)cc(C(F)(F)F)c3s2)cn1 [compound 525, (S,E)-3-(6-aminopyridin-3-yl)-N-((5-(4-(3-fluoropyrrolidine-1-carbonyl)phenyl)-7-(trifluoromethyl)benzo[b]thiophen-2-yl)methyl)acrylamide] | 1 to 5 µM | 1000 to 5000 nM | > 10 µM
7 | CC1(C)CN(C(=O)c2ccc(-c3cc(C(F)(F)F)c4sc(CNC(=O)/C=C/c5ccc(N)nc5)cc4c3)cc2)CCO1 [compound 526, (E)-3-(6-aminopyridin-3-yl)-N-((5-(4-(2,2-dimethylmorpholine-4-carbonyl)phenyl)-7-(trifluoromethyl)benzo[b]thiophen-2-yl)methyl)acrylamide] | 1 to 5 µM | < 1000 nM | > 10 µM
8 | Nc1ccc(/C=C/C(=O)NCc2cc3cc(-c4ccc(C(=O)N5CC6(C5)CC(F)(F)C6)cc4)cc(C(F)(F)F)c3s2)cn1 [compound 527, (E)-3-(6-aminopyridin-3-yl)-N-((5-(4-(6,6-difluoro-2-azaspiro[3.3]heptane-2-carbonyl)phenyl)-7-(trifluoromethyl)benzo[b]thiophen-2-yl)methyl)acrylamide] | 1 to 5 µM | 1000 to 5000 nM | > 10 µM
9 | CC1(O)CCN(C(=O)c2ccc(-c3cc(C(F)(F)F)c4sc(CNC(=O)/C=C/c5ccc(N)nc5)cc4c3)cc2)CC1 [compound 528, (E)-3-(6-aminopyridin-3-yl)-N-((5-(4-(4-hydroxy-4-methylpiperidine-1-carbonyl)phenyl)-7-(trifluoromethyl)benzo[b]thiophen-2-yl)methyl)acrylamide] | 1 to 5 µM | < 1000 nM | > 10 µM
10 | Nc1ccc(/C=C/C(=O)NCc2cc3cc(-c4ccc(C(=O)N5CCC(F)CC5)cc4)cc(C(F)(F)F)c3s2)cn1 [compound 529, (E)-3-(6-aminopyridin-3-yl)-N-((5-(4-(4-fluoropiperidine-1-carbonyl)phenyl)-7-(trifluoromethyl)benzo[b]thiophen-2-yl)methyl)acrylamide] | > 10 µM | > 10000 nM | > 10 µM
11 | Nc1ccc(/C=C/C(=O)NCc2nc3cc(-c4ccc(C(=O)N5CCC(F)(F)CC5)cn4)cc(C(F)(F)F)c3[nH]2)cn1 [compound 530, (E)-3-(6-aminopyridin-3-yl)-N-((5-(5-(4,4-difluoropiperidine-1-carbonyl)pyridin-2-yl)-7-(trifluoromethyl)-1H-benzo[d]imidazol-2-yl)methyl)acrylamide] | > 10 µM | > 10000 nM | > 10 µM
12 | Cn1c(CNC(=O)/C=C/c2ccc(N)nc2)nc2c(C(F)(F)F)cc(-c3ccc(C(=O)N4CCC(F)(F)CC4)cn3)cc21 [compound 531, (E)-3-(6-aminopyridin-3-yl)-N-((6-(5-(4,4-difluoropiperidine-1-carbonyl)pyridin-2-yl)-1-methyl-4-(trifluoromethyl)-1H-benzo[d]imidazol-2-yl)methyl)acrylamide] | > 10 µM | > 10000 nM | > 10 µM
13 | Nc1ccc(/C=C/C(=O)NCc2nc3cc(-c4ccc(C(=O)N5CCC(F)(F)CC5)cn4)cc(C(F)(F)F)c3s2)cn1 [compound 532, (E)-3-(6-aminopyridin-3-yl)-N-((5-(5-(4,4-difluoropiperidine-1-carbonyl)pyridin-2-yl)-7-(trifluoromethyl)benzo[d]thiazol-2-yl)methyl)acrylamide] | < 1 µM | < 1000 nM | > 10 µM
14 | Nc1ccc(/C=C/C(=O)NCc2nc3cc(-c4ccc(C(=O)N5CCC(F)(F)CC5)cc4)cc(C(F)(F)F)c3s2)cn1 [compound 533, (E)-3-(6-aminopyridin-3-yl)-N-((5-(4-(4,4-difluoropiperidine-1-carbonyl)phenyl)-7-(trifluoromethyl)benzo[d]thiazol-2-yl)methyl)acrylamide] | < 1 µM | < 1000 nM | > 10 µM
15 | Nc1ccc(/C=C/C(=O)NCCc2cc3cc(-c4ccc(C(=O)N5CCC(F)(F)CC5)cn4)cc(C(F)(F)F)c3s2)cn1 [compound 534, (E)-3-(6-aminopyridin-3-yl)-N-(2-(5-(5-(4,4-difluoropiperidine-1-carbonyl)pyridin-2-yl)-7-(trifluoromethyl)benzo[b]thiophen-2-yl)ethyl)acrylamide] | < 1 µM | < 1000 nM | < 1 µM
16 | Nc1ccc(/C=C/C(=O)NCc2nc3cc(-c4ccc(C(=O)N5CCC(F)(F)CC5)cc4)cc(-c4ccc(F)cc4)c3s2)cn1 [compound 535, (E)-3-(6-aminopyridin-3-yl)-N-((5-(4-(4,4-difluoropiperidine-1-carbonyl)phenyl)-7-(4-fluorophenyl)benzo[d]thiazol-2-yl)methyl)acrylamide] | 1 to 5 µM | 1000 to 5000 nM | > 10 µM
17 | Nc1ccc(/C=C/C(=O)NCc2cc3cc(-c4ccc(C(=O)N5CCC(F)(F)CC5)cc4)cc(-c4ccc(F)cc4)c3s2)cn1 [compound 536, (E)-3-(6-aminopyridin-3-yl)-N-((5-(4-(4,4-difluoropiperidine-1-carbonyl)phenyl)-7-(4-fluorophenyl)benzo[b]thiophen-2-yl)methyl)acrylamide] | < 1 µM | < 1000 nM | > 10 µM
